Experimental data: patent US9156860B2, “Boron-containing small molecules” (Anacor Pharmaceuticals, Inc., priority 2011, dated 2015)

Test system: Lone star tick larvae (Amblyomma americanum)
Test: Larval immersion microassay against larval-stage Lone star ticks
Details: Amblyomma americanum, 24 h, read-out: activity (percent larval mortality)
Experimental: The larval immersion microassay was conducted as described in detail in White, et al., J. Med. Entomol. […] Compounds of the invention were formulated in dimethylsulfoxide (DMSO) to prepare a stock solution at a concentration of at least 10 mM. […] Approximately 30-50 Lone star tick larvae (Amblyomma americanum) were submerged into each well containing compounds. After a 30 minute immersion period, larvae were removed with a wide-bore pipette tip in 0.05 ml of fluid, dispensed into a commercial paper tissue biopsy bag which was sealed at the top with a plastic dialysis clip, inverted and allowed to air dry for 60 minutes. Bags containing larvae were then incubated at approximately 27 degrees Celsius and >90% relative humidity. After 24 hours, bags were opened, live and dead larvae were counted and percent larval mortality was calculated.
7 contains one chiral center, and is therefore a racemic mixture comprised of approximately 50% R- and 50% S-enantiomer. In vitro and surrogate animal (rat) studies were conducted to evaluate the biological activity of the R- and S-enantiomers of 7. For the in vitro study, larvae of the Lone star tick (Amblyomma americanum) were exposed to 17 (S-enantiomer) and 18 (R-enantiomer) using the larval immersion microassay at a concentration of no greater than 0.3 mM. Following exposure, larvae were removed, transferred to a tissue biopsy bag and incubated at approximately 27 degrees Celsius and >90% relative humidity. After 24 hours, biopsy bags were opened and the numbers of live and dead larvae were determined.

Structure (SMILES) | mortality at 300 µM
CC1(C)OB(O)c2ccc(C3=NOC(c4cc(Cl)c(Cl)c(Cl)c4Cl)(C(F)(F)F)C3)cc21 (stereo not drawn) [Compound 34, 3,3-Dimethyl-5-(5-(2,3,4,5-tetrachlorophenyl)-5-(trifluoromethyl)-4,5-dihydroisoxazol-3-yl)benzo[c][1,2]oxaborol-1(3H)-ol] | ≥ 80%
OB1OCc2cc(C3=NOC(c4cc(Cl)cc(Cl)c4)(C(F)(F)F)C3)ccc21 (stereo not drawn) [Compound 1, 5-(5-(3,5-Dichlorophenyl)-5-(trifluoromethyl)-4,5-dihydroisoxazol-3-yl)benzo[c][1,2]oxaborol-1(3H)-ol] | ≥ 80%
CC1(C)OB(O)c2cc(F)c(C3=NOC(c4cc(Cl)c(Cl)c(Cl)c4)(C(F)(F)F)C3)cc21 (stereo not drawn) [Compound 42, 6-Fluoro-3,3-dimethyl-5-(5-(3,4,5-trichlorophenyl)-5-(trifluoromethyl)-4,5-dihydroisoxazol-3-yl)benzo[c][1,2]oxaborol-1(3H)-ol] | ≥ 80%
CC1(C)OB(O)c2cc(F)c(C3=NOC(c4cc(Cl)cc(Cl)c4)(C(F)(F)F)C3)cc21 (stereo not drawn) [Compound 41] | ≥ 80%
COc1c(Cl)cc(C2(C(F)(F)F)CC(c3ccc4c(c3)C(C)(C)OB4O)=NO2)cc1Cl (stereo not drawn) [Compound 22, 5-(5-(3,5-Dichloro-4-methoxyphenyl)-5-(trifluoromethyl)-4,5-dihydroisoxazol-3-yl)-3,3-dimethylbenzo[c][1,2]oxaborol-1(3H)-ol] | ≥ 80%
CC1(C)OB(O)c2ccc(C3=NOC(c4cc(Cl)c(F)c(Cl)c4F)(C(F)(F)F)C3)cc21 (stereo not drawn) [Compound 35] | ≥ 80%
CC1(C)OB(O)c2ccc(C3=NOC(c4cc(Cl)c(C(F)(F)F)c(Cl)c4)(C(F)(F)F)C3)cc21 (stereo not drawn) [Compound 10, 5-(5-(3,5-Dichloro-4-(trifluoromethyl)phenyl)-5-(trifluoromethyl)-4,5-dihydroisoxazol-3-yl)-3,3-dimethyl-benzo[c][1,2]oxaborol-1(3H)-ol] | ≥ 80%
CC1(C)OB(O)c2ccc(C3=NOC(c4cc(Cl)c(OC(F)(F)F)c(Cl)c4)(C(F)(F)F)C3)cc21 (stereo not drawn) [Compound 12, 5-(5-(3,5-Dichloro-4-(trifluoromethoxy)phenyl)-5-(trifluoromethyl)-4,5-dihydro-isoxazol-3-yl)-3,3-dimethylbenzo[c][1,2]oxaborol-1(3H)-ol] | ≥ 80%
CC1(C)OB(O)c2ccc(C3=NOC(c4cc(Cl)cc(Cl)c4)(C(F)(F)F)C3)cc21 (stereo not drawn) [Compound 2, 5-(5-(3,5-Dichlorophenyl)-5-(trifluoromethyl)-4,5-dihydroisoxazol-3-yl)-3,3-dimethyl-benzo[c][1,2]oxaborol-1(3H)-ol] | ≥ 80%
CC1(C)OB(O)c2ccc(C3=NOC(c4cc(Cl)c(Br)c(Cl)c4)(C(F)(F)F)C3)cc21 (stereo not drawn) [Compound 21, 5-(5-(4-Bromo-3,5-dichlorophenyl)-5-(trifluoromethyl)-4,5-dihydroisoxazol-3-yl)-3,3-dimethylbenzo[c][1,2]oxaborol-1(3H)-ol] | ≥ 80%
CC1(C)OB(O)c2ccc(C3=NO[C@@](c4cc(Cl)cc(Cl)c4)(C(F)(F)F)C3)cc21 [Compound 3, (S)-5-(5-(3,5-dichlorophenyl)-5-(trifluoromethyl)-4,5-dihydroisoxazol-3-yl)-3,3-dimethyl benzo[c][1,2]oxaborol-1(3H)-ol] | ≥ 80%
CC1(C)OB(O)c2ccc(C3=NOC(c4cc(Cl)c(C(F)F)c(Cl)c4)(C(F)(F)F)C3)cc21 (stereo not drawn) [Compound 11, 5-(5-(3,5-Dichloro-4-(difluoromethyl)phenyl)-5-(trifluoromethyl)-4,5-dihydroisoxazol-3-yl)-3,3-dimethyl-benzo[c][1,2]oxaborol-1(3H)-ol] | ≥ 80%
CC1(C)OB(O)c2ccc(C3=NO[C@@](c4cc(Cl)c(F)c(Cl)c4)(C(F)(F)F)C3)cc21 [Compound 28, (S)-5-(5-(3,5-Dichloro-4-fluorophenyl)-5-(trifluoromethyl)-4,5-dihydroisoxazol-3-yl)-3,3-dimethylbenzo[c][1,2]oxaborol-1(3H)-ol] | ≥ 80%
CC1(C)OB(O)c2ccc(C3=NOC(c4cc(C(F)(F)F)cc(C(F)(F)F)c4)(C(F)(F)F)C3)cc21 (stereo not drawn) [Compound 14, 5-(5-(3,5-Bis(trifluoromethyl)phenyl)-5-(trifluoromethyl)-4,5-dihydroisoxazol-3-yl)-3,3-dimethylbenzo[c][1,2]oxaborol-1(3H)-ol] | ≥ 80%
CC1(C)OB(O)c2ccc(C3=NOC(c4cc(Cl)cc(C(F)(F)F)c4)(C(F)(F)F)C3)cc21 (stereo not drawn) [Compound 6] | ≥ 80%

Same assay, conditions: Amblyomma americanum; concentration of no greater than 0.3 mM; 30 minute immersion; counted after 24 hours; read-out: activity (percent larval mortality)

Structure (SMILES) | mortality at 300 µM
CC1(C)OB(O)c2ccc(C3=NOC(c4cc(Br)c(Cl)c(Br)c4)(C(F)(F)F)C3)cc21 (stereo not drawn) [Compound 27, 5-(5-(3,5-Dibromo-4-chlorophenyl)-5-(trifluoromethyl)-4,5-dihydroisoxazol-3-yl)-3,3-dimethylbenzo[c][1,2]oxaborol-1(3H)-ol] | ≥ 80%
CC1(C)OB(O)c2ccc(C3=NOC(c4ccc(F)c(C(F)(F)F)c4)(C(F)(F)F)C3)cc21 (stereo not drawn) [Compound 24, 5-(5-(4-Fluoro-3-(trifluoromethyl)phenyl)-5-(trifluoromethyl)-4,5-dihydroisoxazol-3-yl)-3,3-dimethylbenzo[c][1,2]oxaborol-1(3H)-ol] | ≥ 80%
CC1(C)OB(O)c2ccc(C3=NOC(c4ccc(Cl)c(Cl)c4)(C(F)(F)F)C3)cc21 (stereo not drawn) [Compound 23, 5-(5-(3,4-Dichlorophenyl)-5-(trifluoromethyl)-4,5-dihydroisoxazol-3-yl)-3,3-dimethyl-benzo[c][1,2]oxaborol-1(3H)-ol] | ≥ 80%
CC1(C)OB(O)c2ccc(C3=NOC(c4cc(F)c(Cl)c(F)c4)(C(F)(F)F)C3)cc21 (stereo not drawn) [Compound 30, 5-(5-(4-Chloro-3,5-difluorophenyl)-5-(trifluoromethyl)-4,5-dihydroisoxazol-3-yl)-3,3-dimethylbenzo[c][1,2]oxaborol-1(3H)-ol] | ≥ 80%
CC1(C)OB(O)c2ccc(C3=NOC(c4ccc(F)c(Cl)c4)(C(F)(F)F)C3)cc21 (stereo not drawn) [Compound 19, 5-(5-(3-Chloro-4-fluorophenyl)-5-(trifluoromethyl)-4,5-dihydroisoxazol-3-yl)-3,3-dimethylbenzo[c][1,2]oxaborol-1(3H)-ol] | ≥ 80%
CC1(C)OB(O)c2ccc(C3=NOC(c4cc(Br)cc(Br)c4)(C(F)(F)F)C3)cc21 (stereo not drawn) [Compound 5, 5-(5-(3,5-Dibromophenyl)-5-(trifluoromethyl)-4,5-dihydroisoxazol-3-yl)-3,3-dimethyl-benzo[c][1,2]oxaborol-1(3H)-ol] | ≥ 80%
CC1(C)OB(O)c2ccc(C3=NOC(c4cc(F)c(Cl)c(Cl)c4)(C(F)(F)F)C3)cc21 (stereo not drawn) [Compound 26, 5-(5-(3,4-Dichloro-5-fluorophenyl)-5-(trifluoromethyl)-4,5-dihydroisoxazol-3-yl)-3,3-dimethylbenzo[c][1,2]oxaborol-1(3H)-ol] | ≥ 80%
CC1(C)OB(O)c2ccc(C3=NOC(c4cc(F)c(F)c(Cl)c4)(C(F)(F)F)C3)cc21 (stereo not drawn) [Compound 25, 5-(5-(3-Chloro-4,5-difluorophenyl)-5-(trifluoromethyl)-4,5-dihydroisoxazol-3-yl)-3,3-dimethylbenzo[c][1,2]oxaborol-1(3H)-ol] | ≥ 80%
CC1(C)OB(O)c2ccc(C3=NOC(c4cc(Br)c(F)c(Br)c4)(C(F)(F)F)C3)cc21 (stereo not drawn) [Compound 32, 5-(5-(3,5-Dibromo-4-fluorophenyl)-5-(trifluoromethyl)-4,5-dihydroisoxazol-3-yl)-3,3-dimethylbenzo[c][1,2]oxaborol-1(3H)-ol] | ≥ 80%
